In patent publication US10011598B2, “Small molecules targeting repeat r(CGG) sequences” (THE SCRIPPS RESEARCH INSTITUTE, priority 2012, dated 2018):
“Also recorded” adds a separate entry of the source. Read-outs that look alike come from different tables or passages of the source.

Key:
[1] = system: cTNT alternative splicing; test: cTNT mini-gene control splicing in COS7 cells; type: cell-based; conditions: for effect on cTNT splicing: no concentration stated, not regulated by Sam68
Description: (§1) Control experiments were also completed to determine the specificity of 1a; that is if it affects the splicing of RNAs not controlled by Sam68. In these experiments, a PLEKHH2 (15) or cardiac troponin T (cTNT) (32) mini-gene was used, as their alternative splicing is not regulated by Sam68. […] Thus, the effect of 1a on pre-mRNA splicing appears to be specific to the splicing of pre-mRNAs regulated by Sam68.

r(CGG)12-DGCR8Δ complex = test: TR-FRET protein displacement assay; type: biochemical; conditions: for Percentage displacement at 25 μM: 25 μM compound, DGCR8Δ displaced from r(CGG)12; for inhibition of the r(CGG)12-DGCR8Δ interaction, in words: comparison within the tested compounds
[2] = system: SMN2 exon 7 alternative splicing; test: SMN2 mini-gene splicing in COS7 cells (FXTAS model), RT-PCR; type: cell-based; conditions: for SMN2 pre-mRNA splicing defects, in words: figure legends
Description: Encouraged by our TR-FRET assay results, we tested the bioactivity of the optimal dimeric small molecule, 2E-5NMe, by using a FXTAS cellular model. In the FXTAS cell model, r(CGG)^exp binds and sequesters Sam68, a pre-mRNA splicing regulator. Sequestration of Sam68 causes its inactivation and dysregulation of alternative pre-mRNA splicing. In particular, the alternative splicing of exon 7 of the survival motor neuron-2 pre-mRNA (SMN2; involved in maintenance of motor neurons and mRNA processing) is dysregulated. Exon 7 is included too frequently when r(CGG)^exp is expressed, ˜70% of time as compared to normal cells in which exon 7 has an inclusion rate of only ˜40% (FIG. 14). Experiments were completed as previously described. Briefly. COS7 cells were co-transfected with plasmids expressing an SMN2 alternative splicing reporter and r(CGG)60. The transfection cocktail was removed, and the cells were incubated with fresh medium containing serially diluted concentrations of compound for 24 h. Total RNA was harvested, and splicing patterns were analyzed via RT-PCR. Remarkably, at […] concentration, 2E-5NMe restores alternative pre-mRNA splicing patterns back to the wild type. The monomer 1a required 10 times higher concentration for the same effect.
(§2) In order to determine if a improves FXTAS-associated splicing defects in vivo, a cell culture model system was used. Briefly. COS7 cells were grown as monolayers in 24- or 96-well plates in growth medium (1×DMEM, 10% FBS, and 1× GlutaMax (Invitrogen)). After the cells reached 90-95% confluency, they were transfected using Lipofectamine 2000 reagent (Invitrogen) or PugenHD (Roche) per the manufacturer's standard protocol. Equal amounts of a plasmid expressing a 60 CGG repeats and a mini-gene of interest (SMN2 or Bcl-x) were used. Approximately 5 h post-transfection, the transfection cocktail was removed and replaced with growth medium containing 1a. After 16-24 h, the cells were lysed in the plate, and total RNA was harvested with a Qiagen RNAEasy kit or a GenElute kit (Sigma). An on-column DNA digestion was completed per the manufacturer's recommended protocol.
(§3) A sample of RNA was subjected to reverse transcription-polymerase chain reaction (RT-PCR) using 5 units of AMV Reverse Transcriptase from Life Sciences or Superscript II (Invitrogen). Approximately 300 ng were reverse transcribed, and 150 ng were subjected to PCR. RT-PCR products were observed after 25-30 cycles of: 95° C. for 1 min: 55° C. for 1 min; 72° C. for 2 min and a final extension at 72° C. for 10 min. The products were separated by polyacrylamide or agarose gel electrophoresis, stained, and imaged using a Typhoon phosphorimager. The splicing isoforms were quantified using QuantityOne software (BioRad). Table S-2 lists the RT-PCR primers used for each mini-gene construct.

[3] = system: PLEKHH2 alternative splicing; test: PLEKHH2 mini-gene control splicing in COS7 cells; type: cell-based; conditions: for effect on PLEKHH2 splicing: no concentration stated, not regulated by Sam68
Description: as §1

r(CGG)12 = test: Competition dialysis; type: binding; conditions: 0.7 μM ligand, 2 μM RNA
Procedure: (§4) Competition dialysis was completed as previously described (31). Briefly, 2 μM RNA or protein was transferred into Slide-a-Lyzer MINI dialysis units with a molecular weight cut-off of 2,000 (Thermo Scientific), and the units were placed into a solution of 0.7 μM ligand. Two blank units containing only buffer were used to monitor equilibration by checking the absorbance at the peak wavelength. After the blank units reached equilibrium, sodium dodecyl sulfate (SDS) was added to a final concentration of 1%, and the absorbance was measured. This absorbance was used to determine total ligand concentration (Ct). The concentration of the dialysate (free ligand concentration. Cf) was determined analogously. The bound ligand concentration (Cb) was then determined using equation 2: Cb=Ct−Cf (eq. 2) where Cb, Ct, and Cf are concentrations of bound, total, and free ligand, respectively. RNA-Binding Assays Via Dye Displacement.

fully paired RNAs = test: Competition dialysis; type: binding; conditions: 0.7 μM ligand, 2 μM RNA
Procedure: as §4

DGCR8Δ = test: Competition dialysis; type: binding; conditions: 0.7 μM ligand, 2 μM protein
Procedure: as §4

[4] = biological target: RNA containing one 5′CGG/3′GGC motif; test: RNA-binding assay via Hoechst 33258 dye displacement; conditions: RNA with one 5′CGG/3′GGC motif; Table 1
Procedure: Dissociation constants were determined using an in-solution, fluorescence-based assay (37-45). RNA was annealed in DNA buffer (8 mM Na2HPO4, pH7.0, 185 mM NaCl, 0.1 mM EDTA, 40 μg/mL BSA) at 60° C. for 5 min and allowed to slowly cool to room temperature. The annealed RNA was then titrated into DNA buffer containing 1000 nM Hoechst 33258. Fluorescence signal was recorded using a Bio-Tek FLX-800 plate reader, which was equipped with excitation filter at 360/40 nm and emission filter at 460/40 nm. The change in fluorescence intensity as a function of RNA concentration was fit to the following equation (eq. 3): (37, 46) I=I0+0.5Δϵ{([Ht0]+[RNA]0+Kt)−(([Ht]0+[RNA]0+Kt)^2−4[Ht]0[RNA]0)^0.5} (eq. 3) where I is the observed fluorescence intensity, I0 is the fluorescence intensity in the absence of RNA, Δϵ is the difference between the fluorescence intensity in the absence of RNA and in the presence of infinite RNA concentration and is in units of M^−1. […]
Ligands 1a-1d were then added to compete for binding to the RNA (1 μM) in presence of Hoechst 33258 (1 μM). Reduction in fluorescence of Hoechst 33258 was measured using a Bio-Tek FLX-800 plate reader as a function of ligand concentration (1a-1d) and was fit to the following equation (eq. 4): (41) […]

[5] = system: Bcl-x exon 2 alternative splicing; test: Bcl-x mini-gene splicing in COS7 cells (FXTAS model), RT-PCR; type: cell-based; conditions: for Bcl-x splicing: COS7 cells expressing r(CGG)60
Procedure: as §2, §3

r(CGG)^exp nuclear foci = test: Nuclear foci by fluorescence in situ hybridization (FISH) in COS7 cells; type: cell-based; conditions: COS7 cells transfected with r(CGG)60 and GFP
Procedure: FISH experiments were completed as previously described. (8) Briefly, COS7 cells were plated onto glass coverslips and co-transfected with plasmids encoding for r(CGG)60 and GFP. The cells were fixed in 4% paraformaldehyde in PBS (pH 7.4) for 15 min and washed three times with PBS. Then, they were permeabilized with 0.5% Triton X-100 in PBS. Prior to addition of the FISH probe, the cells were pre-hybridized in a 2×SSC buffer containing 40% formamide and 10 mg/mL BSA for 30 min. The coverslips were hybridized for 2 h in 2×SSC buffer supplemented with 40% formamide, 2 mM vanadyl ribonucleoside, 60 μg/mL tRNA, 30 μg/mL BSA, and 0.75 μg (CCG)8-Cy3 DNA oligonucleotide probe. The cells were washed twice in 2×SSC containing 50% formamide and then twice in 2×SSC. Following FISH the coverslips were incubated for 10 min in 2×SSC containing 1 μg/mL DAPI and rinsed twice in 2×SSC. The coverslips were then mounted in Pro-Long media and examined using either a simple fluorescence microscope (Leica) or a Leica DM4000 B confocal microscope.

[6] = 500 μM, splicing not regulated by Sam68
[7] = 62 times of competitor tRNA, Table 2, read-out: IC50 at the presence of 62 times of competitor, tRNA
[8] = disruption of r(CGG)12-DGCR8Δ complex, Table 1, read-out: IC50
[9] = inhibition of r(CGG)12-DGCR8Δ complex, Table 2, read-out: IC50
[10] = read-out: IC50 for disruption of r(CGG)12-DGCR8Δ complex / inhibition of protein binding
[11] = cells that do not express r(CGG)60

Row | Percentage displacement at 25 μM (r(CGG)12-DGCR8Δ complex; Table 1) | IC50 (r(CGG)12-DGCR8Δ complex; [8]) | Compound | effect on cTNT splicing [1] | r(CGG)12-DGCR8Δ complex formation, % (r(CGG)12-DGCR8Δ complex; 1 μM compound, Table 2) | r(CGG)12-DGCR8Δ complex formation, % (r(CGG)12-DGCR8Δ complex; 10 μM compound, Table 2) | IC50 (r(CGG)12-DGCR8Δ complex; [7]) | IC50 (r(CGG)12-DGCR8Δ complex; [9]) | IC50 (r(CGG)12-DGCR8Δ complex; [10]) | SMN2 pre-mRNA splicing defects, in words ([2]; COS7 cells expressing r(CGG)60) | effect on PLEKHH2 splicing [3] | Kd [4] | inhibition of the r(CGG)12-DGCR8Δ interaction, in words (r(CGG)12-DGCR8Δ complex) | also measured
1 | 46 ± 5% | ~25 µM | Cc1c2ccncc2c(C)c2c1[nH]c1ccc(O)cc12 [1e, 9-hydroxyellipticine] |  |  |  |  |  | ~25 µM |  |  |  | markedly decreased | 
2 | 87 ± 5% | 7 ± 0.2 µM | Cc1c2cc[n+](C)cc2c(C)c2c1[nH]c1ccc(O)cc12 [1d, elliptinium] |  |  |  |  |  |  |  |  | 50 ± 18 nM |  | 
3 |  |  | Cc1c2cc[n+](Cc3cn(CCCNCC(=O)N(C)C(C)C(=O)N(C)C(C)C(=O)N(C)C(C)C(=O)N(C)C(C)C(=O)N(C)C(C)C(=O)N(CCCn4cc(C[n+]5ccc6c(C)c7[nH]c8ccc(O)cc8c7c(C)c6c5)nn4)CC(N)=O)nn3)cc2c(C)c2c1[nH]c1ccc(O)cc12 (stereo not shown) [2E-5NMe] | does not affect | 39.6 ± 0.6% | 5.0 ± 2.6% | 3.52 µM | 0.47 ± 0.08 µM |  | reduction of pro-mRNA splicing defects | does not affect |  | the most potent compound | potency relative to the monomer 1a (r(CGG)12-DGCR8Δ complex; IC50 ratio): ~8 fold; r(CGG)12-DGCR8D complex inhibited (r(CGG)12-DGCR8Δ complex; at 1 mM (so in the source)): 60%; r(CGG)12-DGCR8D complex inhibited (r(CGG)12-DGCR8Δ complex; at 10 mM (so in the source)): 95%; concentration that restores alternative pre-mRNA splicing patterns back to the wild type ([2]; SMN2, COS7 cells with r(CGG)60, 24 h): 50 mM; effect on alternative splicing in healthy cells ([2]; cells without r(CGG)60): does not affect

Row | Compound | Percentage displacement at 25 μM (r(CGG)12-DGCR8Δ complex; Table 1) | IC50 (r(CGG)12-DGCR8Δ complex; [8]) | effect on cTNT splicing [1] | r(CGG)12-DGCR8Δ complex formation, % (r(CGG)12-DGCR8Δ complex; 1 μM compound, Table 2) | r(CGG)12-DGCR8Δ complex formation, % (r(CGG)12-DGCR8Δ complex; 10 μM compound, Table 2) | IC50 (r(CGG)12-DGCR8Δ complex; [7]) | IC50 (r(CGG)12-DGCR8Δ complex; [9]) | IC50 (r(CGG)12-DGCR8Δ complex; [10]) | SMN2 pre-mRNA splicing defects, in words ([2]; COS7 cells expressing r(CGG)60) | effect on PLEKHH2 splicing [3] | Kd [4] | inhibition of the r(CGG)12-DGCR8Δ interaction, in words (r(CGG)12-DGCR8Δ complex) | also measured
4 | Cc1c2cc[n+](CCN3CCCCC3)cc2c(C)c2c1[nH]c1ccc(O)cc12 [1a, 9-hydroxy-5,11-dimethyl-2-(2-(piperidin-1-yl)ethyl)-6H-pyrido[4,3-b]carbazol-2-ium] | 85 ± 1% | 13 ± 0.4 µM | not to effect splicing; also recorded: non-effect | 66.9 ± 0.7% | 20.4 ± 0.8% | 20.1 µM | 3.84 ± 0.3 µM | 12 µM | improves SMN2 pre-mRNA splicing defects | not to effect splicing; also recorded: non-effect | 76 ± 4 nM |  | effect on cTNT alternative splicing [1, 6]: did not affect; SMN2 pre-mRNA splicing level ([2]; 100 μM, COS7 cells expressing r(CGG)60): approximately 70 % of wild type; SMN2 pre-mRNA splicing ([2]; 500 μM, COS7 cells expressing r(CGG)60): restores pre-mRNA splicing to levels wild type; concentration at which improvement of SMN2 splicing defects can be observed ([2]; COS7 cells expressing r(CGG)60): 20 µM; concentration required for the same effect relative to 2E-5NMe ([2]; SMN2 splicing restored to wild type): 10 times; effect on SMN2 splicing [2, 11]: No statistically significant effect; effect on PLEKHH2 alternative splicing [3, 6]: did not affect; binding to r(CGG)12 (r(CGG)12): binds tightly; amount of ligand partitioned into fully paired RNAs relative to r(CGG)12 (fully paired RNAs): less than half; binding to DGCR8Δ (DGCR8Δ): very little binding; Bcl-x splicing ([5]; 100 μM): Statistically significant improvement; Bcl-x splicing ([5]; 500 μM): restoration of wild type splicing patterns; Bcl-x pre-mRNA splicing defects, in words ([5]; COS7 cells expressing 60 r(CGG) repeats): improves Bcl-x pre-mRNA splicing defects; effect on Bcl-x splicing [5, 11]: No statistically significant effect; size and number of r(CGG)^exp nuclear foci / aggregates (r(CGG)^exp nuclear foci): reduces the size and the number of foci; also recorded: reduced formation of r(CGG)^exp aggregation; also recorded: decreases r(CGG)^exp-protein aggregates
